# Test results: article PMC9413440, “An Iterative Approach Guides Discovery of the FabI Inhibitor Fabimycin, a Late-Stage Antibiotic Candidate with In Vivo Efficacy against Drug-Resistant Gram-Negative Infections” (ACS Central Science, 2022)
# Read-outs that look alike come from different tables or passages of the source.
# Legend:
# [1] = system: E. coli AR-0055; assay: MIC against infective strain of UTI model; format: cell-based; conditions: Escherichia coli, AR0055; extensively drug-resistant, carbapenem-resistant E. coli of the UTI model (AR-0055)
# Method: (§1) II. Materials and Methods for Biological Experiments
# (§2) S. aureus ATCC 29213 and E. coli MG1655 were obtained from the American Type Culture Collection (ATCC). E. coli BW25113 and E. coli JW5503 were obtained from the Keio Collection. AR-bank strains were obtained from the Centers for Disease Control and Prevention and FDA Antibiotic Resistance Isolate Bank.
# (§3) Antimicrobial susceptibility tests
# (§4) Susceptibility testing was performed in biological triplicate, unless noted otherwise, using the micro-dilution broth method as outlined by the Clinical and Laboratory Standards Institute. Bacteria were cultured with cation-adjusted Mueller Hinton broth (Sigma Aldrich, catalogue number: 90922). […]
# (§5) NH3: m/z 391.2 → 171.0. Fabimycin: m/z 405.3 → 145.3. Power analysis was not used to determine the number of replicates. Error bars represent the standard error of the mean of three biological replicates. All compounds evaluated in biological assays were ≥95% pure.
# [2] = system: Streptococcus pneumoniae; assay: MIC, Streptococcus pneumoniae strains; format: cell-based
# Method: as §1, §2, §3, §4, §5
# [3] = Pharmacokinetic assessment in neutropenic A. baumannii-infected mice; format: in vivo, mouse; conditions: for Cmax / AUC(0-t) / clearance / half-life: single dose; for TimeHigh: time above the MIC of the infective strain (2 µg/mL)
# Text: Pharmacokinetic assessment
# The protocol to assess fabimycin’s pharmacokinetic properties in A. baumanii-infected mice (strain: AR-0088) was approved by the IACUC at Pharmacology Discovery Services, Taiwan, Ltd. (protocol mumber: PK001-09212018). In this study, neutropenic female BALB/c mice 7-8 weeks in age from BioLASCO Taiwan (AAALAC-certified Charles River Licensee) weighing 18 ± 2 grams were used.10 All animals were specific pathogen free. Mice were rendered neutropenic via cyclophosphamide (CP) administration by two intraperitoneal (IP) injections following a standard method for mouse thigh infection models.11 The first CP dose, 150 mg/kg, was administered at four days before infection (Day –4); and the second, 100 mg/kg, at 24 h before infection (Day –1), prior to infection on Day 0.
# To inoculate the mice, A. baumannii cultures were first generated by seeding brain heart infusion (BHI, 20 mL) with an aliquot (0.2 mL) of a single-used glycerol stock of A. baumannii AR-0088 stored at -80 °C and incubating at 35-37 °C with shaking (250 rpm) for 6 hours. An aliquot of this culture (1.0 mL) was used to seed fresh BHI media (99 mL) and this shaken (250 rpm) at 35-37 °C for 16 hours. Bacterial cells were harvested by centrifuging 20 mL of this outgrowth culture (3,500 x g) for 15 minutes and re-suspending in fresh cold phosphate buffered saline (PBS, 10 mL). The optical density at 620 nm was measured and used to guide dilutions. PBS suspensions were stored on ice for no more than 1 hour prior to animal inoculation. The bacterial count in the challenge organism suspension was enumerated by dilution plating on to nutrient gar plates followed by 20-24 hour incubation. The target inoculum is 1.0 * 10^5 CFU/mouse for the strain […]
# Fabimycin was IV administered once followed by terminal blood sampling at 8 time points with cardiac puncture (5, 15, 30, 45, 60, 120, 240, and 480 minutes). Terminal blood collection from cardiac puncture was conducted under CO2 euthanasia. Blood, 0.3-0.4 mL, was drawn into tubes coated with K2EDTA, mixed gently and kept on ice and centrifuged at 12,000 × g for 5 minutes at 4°C within 1 hour of collection. The plasma was harvested and stored at -80 °C until further processing. Thigh tissues were aseptically harvested from the left thigh of the infected animals, weighed, and homogenized in sterile PBS (3 mL, pH 7.4) with a Polytron homogenizer. The thigh homogenate was collected and stored at -80 °C until further processing.
# For LC-MS/MS sample processing a 20 µL aliquot of each plasma and thigh sample was transferred to 96 well plate. A 300 µL aliquot of 0.01 ng/µL internal standard (IS), oxybutynin, in MeOH/FA=95/5 was added to each tube except for the double blank and carryover controls. A 300 μL aliquot of MeOH/FA=95/5, without oxybutynin, was added to the double blank and carryover assay wells. The equilibrated mixture was vortexed for 1 min and then centrifuged at 4,000 rpm for 5 min at 20 °C to precipitate protein. After centrifugation, 50 µL of the supernatant was transferred to a new well of the 96 well plate and 500 μL H2O/FA=100/0.2 added for LC-MS/MS analysis. Plasma and thigh samples from treatment groups and the calibration curve samples were processed on the same test occasion using the same procedure.
# The calibration curve samples were generated by spiking aliquots of drug-free plasma or thigh homogenates with the test article dilution. The quality control (QC) samples, QH (high), QM (medium) and QL (low) were each assayed in duplicate. The PK parameters for the IV doses were obtained from the non-compartmental analysis (NCA) of the plasma and thigh homogenate data using WinNonlin (Phoenix® Build 8.3.1.5014).
# LC-MS/MS runs were conducted with a SCIEX Triple Quad™ 5500+ mass sp ectrometer. Method development was conducted to determine appropriate conditions for LC-MS/MS analysis of fabimycin. A titration of a stock solution was performed to correlate peak areas and the corresponding concentration. […]
# [4] = female, BALB/c, mouse, plasma, 75 mg/kg, IV
# [5] = female, BALB/c, mouse, plasma, 100 mg/kg, IV
# [6] = female, BALB/c, mouse, thigh, 75 mg/kg, IV
# [7] = female, BALB/c, mouse, thigh, 100 mg/kg, IV
structure (smiles),measurement,setting,value
Cc1c(CN(C)C(=O)/C=C/c2cnc3c(c2)CC[C@H](N)C(=O)N3)oc2ccccc12 [fabimycin],MIC,[1],2 µg/mL
same,MIC,[2]; S. pneumoniae 202-5872,>128 µg/mL
same,MIC,[2]; S. pneumoniae 202-6154,>128 µg/mL
same,MIC,[2]; S. pneumoniae 202-6515,>128 µg/mL
same,MIC,[2]; S. pneumoniae 202-7382,>128 µg/mL
same,MIC,[2]; S. pneumoniae CO314937,>128 µg/mL
same,MIC,[2]; S. pneumoniae MD77773,>128 µg/mL
same,MIC,[2]; S. pneumoniae MD77841,>128 µg/mL
same,MIC,[2]; S. pneumoniae NYO5984,>128 µg/mL
same,MIC,"[2]; Streptococcus pneumoniae, ATCC49619, S. pneumoniae ATCC 49619, read-out: MIC",> 128 µg/mL
same,MIC,"[2]; Streptococcus pneumoniae, S. pneumoniae NYO5986, read-out: MIC",> 128 µg/mL
same,Cmax,"[3]; female, BALB/c, mouse, plasma, iv, 75 mg/kg, plasma, 75 mg/kg, read-out: Cmax",34600 ng/mL
same,Cmax,"[3]; female, BALB/c, mouse, plasma, iv, 100 mg/kg, plasma, 100 mg/kg, read-out: Cmax",47300 ng/mL
same,Cmax,"[3]; female, BALB/c, mouse, thigh, iv, 75 mg/kg, thigh, 75 mg/kg, read-out: Cmax",33000 ng/g
same,Cmax,"[3]; female, BALB/c, mouse, thigh, iv, 100 mg/kg, thigh, 100 mg/kg, read-out: Cmax",60200 ng/g
same,AUC(0-t),[3]; [4],45400 ng·h/mL
same,clearance,[3]; [4],26.9 mL/min/kg
same,half-life,[3]; [4],1.4 h
same,AUC(0-t),[3]; [5],69800 ng·h/mL
same,clearance,[3]; [5],23.5 mL/min/kg
same,half-life,[3]; [5],1.4 h
same,AUC(0-t),[3]; [6],65200 ng·h/mL
same,clearance,[3]; [6],18.9 mL/min/kg
same,half-life,[3]; [6],1.39 h
same,AUC(0-t),[3]; [7],112000 ng·h/mL
same,clearance,[3]; [7],14.7 mL/min/kg
same,half-life,[3]; [7],1.24 h
same,TimeHigh,"[3]; plasma, 75 mg/kg, IV",5.70 h
same,Cmax,"[3]; plasma, 100 mg/kg, IV",47000 ng/mL
same,TimeHigh,"[3]; plasma, 100 mg/kg, IV",6.67 h
same,TimeHigh,"[3]; thigh, 75 mg/kg, IV",over 6 h
same,TimeHigh,"[3]; thigh, 75 mg/kg, IV, listed as Fabimycin",6.22 h
same,TimeHigh,"[3]; thigh, 100 mg/kg, IV",7.19 h
